Assay results: US20060127315A1, “Methods of treating humans undergoing injection of a contrast agent” (SHIVA BIOMEDICAL, L.L.C., priority 2004, published 2006)

Assay: Pharmacokinetics of deferiprone, single oral dose crossover study in subjects with mild renal insufficiency
Format: in vivo, human
Conditions: patients with mild to moderate renal insufficiency
Experimental: Blood samples were collected immediately prior to and for a period of 48 hours after each dose and the concentrations of deferiprone determined.

SMILES: Cc1c(O)c(=O)ccn1C [deferiprone, 1,2-dimethyl-3-hydroxy-pyrid-4-one]
- pharmacokinetic profile compared with patients with normal renal function: very similar to that reported with patients with normal renal function
